Data published in PMC8315004, “Discovery of Small-Molecule Inhibitors of SARS-CoV-2 Proteins Using a Computational and Experimental Pipeline” (Frontiers in Molecular Biosciences, 2021).

molecular target: SARS-CoV-2 M^pro (Severe acute respiratory syndrome coronavirus 2, UniProt P0DTD1); experiment: biochemical; set-up: inhibition: dose or concentration left out as unconfirmed; conditions: not given

Compound | effect in the FRET-based activity assay (in words)
CCOc1nc2cccc(C(=O)O)c2n1Cc1ccc(-c2ccccc2-c2nnn[nH]2)cc1 [Candesartan] | no effect

same assay, conditions: initial screen, 100 μM of drug, Table S4

Compound | Normalized Percent FRET inhibition
Cc1cncc(CN2CCC(=C3c4ccc(Cl)cc4CCc4cccnc43)CC2)c1.O=C(O)/C=C/C(=O)O [Rupatadine Fumarate] | -2.415%
Maraviroc | -2.69%
CNC(=O)c1cnn(-c2nc(N)c3ncn([C@@H]4O[C@H](CO)[C@@H](O)[C@H]4O)c3n2)c1 [Regadenoson] | -0.1877%
Cc1cc(O)c(C(=O)N[C@@H](C(=O)N[C@@H]2C(=O)N3C(C(=O)O)=C(CSc4nnnn4C)CS[C@H]23)c2ccc(O)cc2)cn1 [Cefpiramide acid] | 7.373%
CO/N=C(\C(=O)N[C@@H]1C(=O)N2C(C(=O)O)=C(CSc3nnnn3C)CS[C@H]12)c1csc(N)n1.CO/N=C(\C(=O)N[C@@H]1C(=O)N2C(C(=O)O)=C(CSc3nnnn3C)CS[C@H]12)c1csc(N)n1.Cl [Cefmenoxime hydrochloride] | -1.304%
CCC(=O)O[C@@H](O[P@](=O)(CCCCc1ccccc1)CC(=O)N1C[C@H](C2CCCCC2)C[C@H]1C(=O)[O-])C(C)C.[Na+] [Fosinopril sodium] | 3.315%
Eptifibatide acetate | 2.056%
Nc1nc(=O)c2c([nH]1)NC[C@H](CNc1ccc(C(=O)N[C@@H](CCC(=O)[O-])C(=O)[O-])cc1)N2C=O.[Ca+2] [Calcium Levofolinate] | 13%
COc1ccc(CN2CCN(C(c3ccc(F)cc3)c3ccc(F)cc3)CC2)c(OC)c1OC.Cl.Cl [Lomerizine hydrochloride] | -0.2765%
OC[C@H]1O[C@H](O[C@H]2[C@H](O)[C@@H](O)[C@@H](O[C@H]3[C@H](O)[C@@H](O)[C@@H](O[C@H]4[C@H](O)[C@@H](O)C(O)O[C@@H]4CO)O[C@@H]3CO)O[C@@H]2CO)[C@H](O)[C@@H](O)[C@@H]1O (stereo partly shown) [MALTOTETRAOSE] | -0.9055%
Hyaluronic acid | -2.844%
CC(C)CN(C[C@@H](O)[C@H](Cc1ccccc1)NC(=O)O[C@H]1CO[C@H]2OCC[C@H]21)S(=O)(=O)c1ccc(N)cc1.CCO [Darunavir Ethanolate] | -1.838%
CO[C@H]1C[C@H](O[C@H]2CC[C@]3(C)[C@H]4CC[C@]5(C)[C@@H](C6=CC(=O)OC6)CC[C@]5(O)[C@@H]4CC[C@]3(O)C2)O[C@H](C)[C@H]1O[C@@H]1O[C@H](CO)[C@@H](O)[C@H](O)[C@H]1O [Periplocin] | -1.536%
CC(=O)Nc1cccc(-n2c(=O)n(C3CC3)c(=O)c3c(Nc4ccc(I)cc4F)n(C)c(=O)c(C)c32)c1.C[S+](C)[O-] [Trametinib DMSO solvate] | 1.516%
Ivermectin | -0.9158%

same assay, conditions: initial screen, 100 μM of drug, Table S4; 100 µM

Compound | Normalized Percent FRET inhibition
CCN1CCN(C(=O)N[C@@H](C(=O)N[C@@H]2C(=O)N3C(C(=O)O)=C(CSc4nnnn4C)CS[C@H]23)c2ccc(O)cc2)C(=O)C1=O [Cefoperazone sodium] | 14.81%
CCN1CCN(C(=O)N[C@@H](C(=O)N[C@@H]2C(=O)N3C(C(=O)O)=C(CSc4nnnn4C)CS[C@H]23)c2ccc(O)cc2)C(=O)C1=O [Cefoperazone] | -0.3067%

same assay, conditions: initial screen, Table S4; read-out: Normalized Percent FRET inhibition

Compound | inhibition
CC1(C)[C@@H](O)CC[C@]2(C)[C@H]3C(=O)C=C4[C@@H]5C[C@@](C)(C(=O)O)CC[C@]5(C)CC[C@@]4(C)[C@]3(C)CC[C@@H]12 [Enoxolone] | 4.01%
CCOc1nc2cccc(C(=O)OCc3oc(=O)oc3C)c2n1Cc1ccc(-c2ccccc2-c2noc(=O)[nH]2)cc1 [Azilsartan Medoxomil] | -1.99%
Cc1cc(/C=C/C#N)cc(C)c1Nc1ccnc(Nc2ccc(C#N)cc2)n1 [Rilpivirine] | 5.87%
CC1=NN(c2ccc(C)c(C)c2)C(=O)/C1=N\Nc1cccc(-c2cccc(C(=O)O)c2)c1O [Eltrombopag Olamine] | 23.7%
COc1ccc2c(O[C@@H]3C[C@H]4C(=O)N[C@]5(C(=O)NS(=O)(=O)C6CC6)C[C@H]5/C=C\CCCCN(C)C(=O)[C@@H]4C3)cc(-c3nc(C(C)C)cs3)nc2c1C [Simeprevir] | 72.9%
Cc1cccc(C)c1OCC(=O)N[C@@H](Cc1ccccc1)[C@@H](O)C[C@H](Cc1ccccc1)NC(=O)[C@H](C(C)C)N1CCCNC1=O [Lopinavir] | 18.2%
CC1(C)S[C@@H]2[C@H](NC(=O)[C@H](NC(=O)N3CCNC3=O)c3ccccc3)C(=O)N2[C@H]1C(=O)O [Azlocillin sodium] | -0.915%
C[C@H]1O[C@H](O[C@H]2[C@H](O)[C@@H](O)[C@@H](O[C@H]3[C@H](O)[C@@H](O)C(O)O[C@@H]3CO)O[C@@H]2CO)[C@H](O)[C@@H](O)[C@@H]1N[C@H]1C=C(CO)[C@@H](O)[C@H](O)[C@H]1O (stereo partly shown) [Acarbose] | -3.44%
C[C@@H]1O[C@@H](O[C@H]2C[C@@H](O)[C@]3(CO)[C@H]4[C@H](O)C[C@]5(C)[C@@H](C6=CC(=O)OC6)CC[C@]5(O)[C@@H]4CC[C@]3(O)C2)[C@H](O)[C@H](O)[C@H]1O [Ouabain octahydrate] | -0.948%
CC(=O)O[C@H]1C[C@@H]2CC[C@@H]3[C@H](CC[C@@]4(C)[C@H]3C[C@H]([N+]3(C)CCCCC3)[C@@H]4OC(C)=O)[C@@]2(C)C[C@@H]1N1CCCCC1 [Vecuronium bromide] | 4.13%
CS(=O)(=O)CCNCc1ccc(-c2ccc3ncnc(Nc4ccc(OCc5cccc(F)c5)c(Cl)c4)c3c2)o1 [Lapatinib Ditosylate] | -1.57%
CC1=C(C(=O)OCCN(Cc2ccccc2)c2ccccc2)C(c2cccc([N+](=O)[O-])c2)C(P2(=O)OCC(C)(C)CO2)=C(C)N1 (stereo not shown) [Efonidipine] | -1.16%
Cc1cnc(C(=O)N[C@H]2CCCCC/C=C\[C@@H]3C[C@@]3(C(=O)NS(=O)(=O)C3CC3)NC(=O)[C@@H]3C[C@@H](Oc4nc5ccccc5c5ccccc45)CN3C2=O)cn1 [Paritaprevir] | 0.758%
C#C[C@]1(O)CC[C@H]2[C@@H]3CCc4cc(OC)ccc4[C@H]3CC[C@@]21C [Mestranol] | -1.1%
Cc1cc(C#N)cc(C)c1Oc1nc(Nc2ccc(C#N)cc2)nc(N)c1Br [Etravirine] | -0.895%
C[C@H]1CN(C[C@H](Cc2ccccc2)C(=O)NCC(=O)O)CC[C@@]1(C)c1cccc(O)c1 [Alvimopan] | -3.26%
OCCOCCN1CCN(C(c2ccccc2)c2ccc(Cl)cc2)CC1 (stereo not shown) [Hydroxyzine Pamoate] | 12.9%
C[C@]12C=CC(=O)N[C@@H]1CC[C@@H]1[C@@H]2CC[C@]2(C)[C@@H](C(=O)Nc3cc(C(F)(F)F)ccc3C(F)(F)F)CC[C@@H]12 [Dutasteride] | -2.38%

Compound | inhibition
CCOC(=O)N[C@@H]1CC[C@@H]2[C@@H](C1)C[C@H]1C(=O)O[C@H](C)[C@H]1[C@H]2/C=C/c1ccc(-c2cccc(F)c2)cn1 [Vorapaxar] | -0.416%
O=C1[C@H](CC[C@H](O)c2ccc(F)cc2)[C@@H](c2ccc(O)cc2)N1c1ccc(F)cc1 [Ezetimibe] | -1.34%
CC1=C(C(=O)OC(C)C)C(c2cccc([N+](=O)[O-])c2)C(C(=O)OC2CN(C(c3ccccc3)c3ccccc3)C2)=C(N)N1 (stereo not shown) [Azelnidipine] | 8.17%
Cc1nc(C)c2c(n1)N(Cc1ccc(-c3ccccc3-c3nnn[nH]3)cc1)C(=O)CC2 [Tasosartan] | -1.96%
CC(C)C(=O)OCC(=O)[C@@]12O[C@H](C3CCCCC3)O[C@@H]1C[C@H]1[C@@H]3CCC4=CC(=O)C=C[C@]4(C)[C@H]3[C@@H](O)C[C@@]12C [Ciclesonide] | -0.393%
C[C@@H](O[C@H]1OCCN(Cc2n[nH]c(=O)[nH]2)[C@H]1c1ccc(F)cc1)c1cc(C(F)(F)F)cc(C(F)(F)F)c1 [Aprepitant] | 3.37%
CC1CNc2c(cccc2S(=O)(=O)N[C@@H](CCCNC(=N)N)C(=O)N2CC[C@@H](C)C[C@@H]2C(=O)O)C1 (stereo partly shown) [Argatroban] | 13.5%
CC(C)OC(=O)[C@H](C)N[P@](=O)(OC[C@H]1O[C@@H](n2ccc(=O)[nH]c2=O)[C@](C)(F)[C@@H]1O)Oc1ccccc1 [Sofosbuvir] | -0.4%
CCCc1nc(C(C)(C)O)c(C(=O)OCc2oc(=O)oc2C)n1Cc1ccc(-c2ccccc2-c2nnn[nH]2)cc1 [Olmesartan Medoxomil] | 2.83%
COc1cc(C(=O)NS(=O)(=O)c2ccccc2C)ccc1Cc1cn(C)c2ccc(NC(=O)OC3CCCC3)cc12 [Zafirlukast] | 3.83%
CC(C)(C)NC(=O)[C@@H]1C[C@@H]2CCCC[C@@H]2CN1C[C@@H](O)[C@H](Cc1ccccc1)NC(=O)[C@H](CC(N)=O)NC(=O)c1ccc2ccccc2n1 [Saquinavir] | -1.34%
COc1cc(N2CCC(N3CCN(C)CC3)CC2)ccc1Nc1ncc(Cl)c(Nc2ccccc2P(C)(C)=O)n1 [Brigatinib] | 5.97%
C=CC[N+]1([C@H]2C[C@H]3[C@@H]4CC[C@H]5C[C@H](O)[C@@H](N6CCOCC6)C[C@]5(C)[C@H]4CC[C@]3(C)[C@H]2OC(C)=O)CCCC1 [Rocuronium bromide] | 11.3%
COc1ccc2nc3cc(Cl)ccc3c(Nc3cc(CN4CCCC4)c(O)c(CN4CCCC4)c3)c2n1 [Pyronaridine] | -8.33%
Cc1ccc(Nc2nccc(N(C)c3ccc4c(C)n(C)nc4c3)n2)cc1S(N)(=O)=O [Pazopanib] | -0.955%
CO[C@@H]1[C@@H](OC(N)=O)[C@@H](O)[C@H](Oc2ccc3c(O)c(NC(=O)c4ccc(O)c(CC=C(C)C)c4)c(=O)oc3c2C)OC1(C)C [Novobiocin Sodium] | -0.228%
C=CC[C@@H]1/C=C(\C)C[C@H](C)C[C@H](OC)[C@H]2O[C@@](O)(C(=O)C(=O)N3CCCC[C@H]3C(=O)O[C@H](/C(C)=C/[C@@H]3CC[C@@H](O)[C@H](OC)C3)[C@H](C)[C@@H](O)CC1=O)[C@H](C)C[C@@H]2OC [Tacrolimus] | -0.417%

same assay, conditions: read-out: Normalized Percent FRET inhibition

Compound | inhibition at 100 µM
CC(=O)O[C@H]1C[C@@H]2CC[C@@H]3[C@H](CC[C@@]4(C)[C@H]3C[C@H]([N+]3(C)CCCCC3)[C@@H]4OC(C)=O)[C@@]2(C)C[C@@H]1[N+]1(C)CCCCC1 [Pancuronium bromide] | 10%
CN1c2c(nc(N)[nH]c2=O)NCC1CNc1ccc(C(=O)N[C@@H](CCC(=O)O)C(=O)O)cc1 (stereo partly shown) [Calcium N5-methyltetrahydrofolate] | 3.74%
